Where a name gives a salt, the structure may show the parent alone.
Molecular target: T1, full-length human BTK (Homo sapiens, UniProt Q06187)
T1 construct: 2.5× stocks of full-length human BTK (08-080); purchased CarnaBio USA, Inc., Natick, Mass; 08-080
Assay: Assay A: BTK IC50 Enzyme Assay (microfluidic off-chip mobility shift kinase assay)
Format: biochemical
Details: full-length human BTK, kinKDR peptide substrate, incubated 90 min at 27 C; read-out: Assay A (Time Dependent BTK Enzyme Assay IC50)
Description: Assay A: BTK IC50 Enzyme Assay
The following describes a microfluidic, off-chip mobility shift kinase assay used to measure inherent potency of compounds against BTK enzyme. Compounds described by embodiments of the present invention were assayed using this protocol and the data from the same is recorded in Table 2 within the column labeled: “Time Dependent BTK Enzyme Assay IC50”.
Stopped reactions were monitored at −2 PSI, −3000 V/−700 V in a LabChip 3000 plate reader from Caliper Life Sciences, a PerkinElmer Company (Hopkinton, Mass.), and the activity was measured by off-chip mobility shift assay measuring the charge/mass difference between substrate and product resulting from peptide phosphorilation. IC50 and efficacy were determined by plotting log [Inhibitor] vs. % Activity in GeneData Screener (Basel, Switzerland). […] I<1 uM and II>1 uM.

T1 sequence (Q06187 whole entry): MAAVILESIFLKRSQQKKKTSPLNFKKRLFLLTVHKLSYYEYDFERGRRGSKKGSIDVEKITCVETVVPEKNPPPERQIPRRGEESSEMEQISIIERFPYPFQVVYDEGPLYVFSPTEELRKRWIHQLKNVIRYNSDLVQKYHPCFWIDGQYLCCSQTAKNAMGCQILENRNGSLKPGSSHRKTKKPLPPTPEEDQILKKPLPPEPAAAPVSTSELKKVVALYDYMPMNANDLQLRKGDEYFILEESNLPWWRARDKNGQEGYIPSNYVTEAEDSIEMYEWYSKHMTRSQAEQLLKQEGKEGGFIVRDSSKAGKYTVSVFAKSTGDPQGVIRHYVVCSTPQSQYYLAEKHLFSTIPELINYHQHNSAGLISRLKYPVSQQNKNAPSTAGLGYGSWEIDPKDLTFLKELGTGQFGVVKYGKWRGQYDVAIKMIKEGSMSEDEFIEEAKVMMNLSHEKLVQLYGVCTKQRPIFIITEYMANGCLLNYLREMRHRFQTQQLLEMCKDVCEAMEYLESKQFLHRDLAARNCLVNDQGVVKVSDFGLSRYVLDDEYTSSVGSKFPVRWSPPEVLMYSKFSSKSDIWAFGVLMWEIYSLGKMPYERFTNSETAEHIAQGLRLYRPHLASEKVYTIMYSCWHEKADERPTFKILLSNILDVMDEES

Compound	IC50
C=CC(=O)N1CCCN(c2ncc(C(N)=O)c(Oc3ccc(Oc4ccccc4)cc3)n2)CC1 [Compound 206, 2-(4-acryloyl-1,4-diazepan-1-yl)-4-(4-phenoxyphenoxy)pyrimidine-5-carboxamide]	100 to 1000 nM
C=CC(=O)N1CCC(c2ccc(C(N)=O)c(Nc3ccc(C(=O)N4CCN(C(=O)CCCCN)CC4)cc3)n2)CC1 [Compound 29, 1′-Acryloyl-6-{4-[4-(5-amino-pentanoyl)-piperazine-1-carbonyl]-phenylamino}-1′,2′,3′,4′,5′,6′-hexahydro-[2,4′]bipyridinyl-5-carboxylic acid amide hydrochloride]	< 100 nM
C=CC(=O)NC1CCN(c2cnc(Oc3ccc(Oc4cccc(F)c4)cc3)c(C(N)=O)c2)CC1 [Compound 212, 4-Acryloylamino-6′-[4-(3-fluoro-phenoxy)-phenoxy]-3,4,5,6-tetrahydro-2H-[1,3′]bipyridinyl-5′-carboxylic acid amide]	100 to 1000 nM
C/C=C/C(=O)N1CCC(Nc2cnc(Oc3ccc(Oc4ccccc4)cc3)c(C(N)=O)c2)CC1 [Compound 234, 5-[1-((E)-But-2-enoyl)-piperidin-4-ylamino]-2-(4-phenoxy-phenoxy)-nicotinamide]	1000 to 5000 nM
C=CC(=O)NC1CCCN(c2cnc(Oc3ccc(Oc4ccccc4)cc3)c(C(N)=O)c2)C1 (centres unmarked) [Compound 198]	100 to 1000 nM
C=CC(=O)N[C@H]1CCN(c2nc(Nc3ccc(F)c(C)c3)ccc2C(N)=O)C1 [Compound 157, 2-((S)-3-Acryloylamino-pyrrolidin-1-yl)-6-(4-fluoro-3-methyl-phenylamino)-nicotinamide]	< 100 nM
C=CC(=O)N[C@H]1CCN(c2ncc(C(N)=O)c(Oc3ccc(Oc4ccccc4)cc3)n2)C1 [Compound 192, (S)-2-(3-acrylamidopyrrolidin-1-yl)-4-(4-phenoxyphenoxy)pyrimidine-5-carboxamide]	100 to 1000 nM
C=CC(=O)N[C@H]1CCN(c2ccc(C(N)=O)c(Nc3ccc(N4CCCC4)nc3)n2)C1 [Compound 41, 6-((S)-3-Acryloylamino-pyrrolidin-1-yl)-2-(6-pyrrolidin-1-yl-pyridin-3-ylamino)-nicotinamide]	< 100 nM
N#CNC(=O)N1CCN(c2ccc(C(N)=O)c(Oc3ccc(Oc4ccccc4)cc3)n2)CC1 [Compound 237, 4-(5-carbamoyl-6-(4-phenoxyphenoxy)pyridin-2-yl)-N-cyanopiperazine-1-carboxamide]	1000 to 5000 nM
C=CC(=O)N[C@H]1CCN(c2ccc(C(N)=O)c(Nc3cccnc3)n2)C1 [Compound 52, 6-((S)-3-Acryloylamino-pyrrolidin-1-yl)-2-(pyridin-3-ylamino)-nicotinamide]	< 100 nM
C/C=C/C(=O)NC1CCN(c2cnc(Oc3ccc(Oc4cccc(F)c4)cc3)c(C(N)=O)c2)CC1 [Compound 214, 4-((E)-But-2-enoylamino)-6′-[4-(3-fluoro-phenoxy)-phenoxy]-3,4,5,6-tetrahydro-2H-[1,3′]bipyridinyl-5′-carboxylic acid amide]	> 5000 nM
C=CC(=O)N[C@H]1CCN(c2nc(Nc3ccc(N4CCC(F)(F)CC4)cc3)c(F)cc2C(N)=O)C1 [Compound 186, 2-((S)-3-Acryloylamino-pyrrolidin-1-yl)-6-[4-(4,4-difluoro-piperidin-1-yl)-phenylamino]-5-fluoro-nicotinamide formic acid]	100 to 1000 nM
C=CC(=O)N1CCCC(c2ccc(C(N)=O)c(Oc3ccc(Oc4ccccc4)cc3)n2)C1 (centres unmarked) [Compound 87, 1′-Acryloyl-6-(4-phenoxy-phenoxy)-1′,2′,3′,4′,5′,6′-hexahydro-[2,3′]bipyridinyl-5-carboxylic acid amide]	100 to 1000 nM
C=CC(=O)N1[C@@H]2CC[C@H]1CC(c1cnc(C(N)=O)cn1)C2 (some centres unmarked) [Compound 136]	1000 to 5000 nM
C=CC(=O)N[C@H]1CCN(c2ccc(C(N)=O)c(Nc3ccc(Oc4ccccc4)cc3)n2)C1 [Compound 54, 6-((S)-3-Acryloylamino-pyrrolidin-1-yl)-2-(4-phenoxy-phenylamino)-nicotinamide]	< 100 nM
C=CC(=O)N1CC2CCC1CN2c1ncc(C(N)=O)c(Oc2ccc(Oc3ccccc3)cc2)n1 (centres unmarked) [Compound 225, 2-(5-acryloyl-2,5-diazabicyclo[2.2.2]octan-2-yl)-4-(4-phenoxyphenoxy)pyrimidine-5-carboxamide]	< 100 nM
N#CN1CCC[C@@H](c2cnc(Oc3ccc(Oc4ccccc4)cc3)c(C(N)=O)c2)C1 [Compound 240, (S)-5-(1-cyanopiperidin-3-yl)-2-(4-phenoxyphenoxy)nicotinamide]	100 to 1000 nM
C=CC(=O)N[C@H]1CCN(c2ccc(C(N)=O)c(Oc3ccc(Oc4cccc(C#N)c4)cc3)n2)C1 [Compound 79, (S)-6-(3-acrylamidopyrrolidin-1-yl)-2-(4-(3-cyanophenoxy)phenoxy)nicotinamide]	< 100 nM
C=CC(=O)N1CCn2ncc(-c3cnc(C(N)=O)c(NC(C)=O)c3)c2C1 [Compound 132]	< 100 nM
C=CC(=O)N1CCC(c2ccc(C(N)=O)c(Oc3ccc(Oc4ccccc4)cc3)n2)C1 (centres unmarked) [Compound 70, 6-(1-acryloylpyrrolidin-3-yl)-2-(4-phenoxyphenoxy)nicotinamide]	< 100 nM
C=CC(=O)N1CCC=C(c2ccc(C(N)=O)c(Oc3ccc(Oc4ccccc4)cc3)n2)C1 [Compound 83, 1′-Acryloyl-6-(4-phenoxy-phenoxy)-1′,2′,5′,6′-tetrahydro-[2,3′]bipyridinyl-5-carboxylic acid amide]	< 100 nM
C=CC(=O)N(C)[C@H]1CCN(c2ccc(C(N)=O)c(Oc3ccc(Oc4ccccc4)cc3)n2)C1 [Compound 107, 6-[(S)-3-(Acryloyl-methyl-amino)-pyrrolidin-1-yl]-2-(4-phenoxy-phenoxy)-nicotinamide]	< 100 nM
C=CC(=O)N[C@H]1CCN(c2ccc(C(N)=O)c(Nc3cccc(C)c3)n2)C1 [Compound 57, 6-((S)-3-Acryloylamino-pyrrolidin-1-yl)-2-m-tolylamino-nicotinamide]	< 100 nM
C=CC(=O)N1CCC(c2cnc(C(N)=O)nc2)CC1 [Compound 153]	> 5000 nM
C=CC(=O)N1C2CC1CN(c1ncc(C(N)=O)c(Oc3ccc(Oc4ccccc4)cc3)n1)C2 [Compound 193, 2-(6-acryloyl-3,6-diazabicyclo[3.1.1]heptan-3-yl)-4-(4-phenoxyphenoxy)pyrimidine-5-carboxamide]	100 to 1000 nM
C/C=C(\C#N)C(=O)N1C[C@@H]2C[C@H]1CN2c1ncc(C(N)=O)c(Oc2ccc(Oc3ccccc3)cc2)n1 [Compound 211, 2-((1S,4S)-5-((E)-2-cyanobut-2-enoyl)-2,5-diazabicyclo[2.2.1]heptan-2-yl)-4-(4-phenoxyphenoxy)pyrimidine-5-carboxamide]	1000 to 5000 nM
C=CC(=O)N[C@@H]1CCCN(c2ccc(C(N)=O)c(Nc3ccc(C(=O)N4CCOCC4)cc3)n2)C1 [Compound 205, (R)-3-Acryloylamino-6′-[4-(morpholine-4-carbonyl)-phenylamino]-3,4,5,6-tetrahydro-2H-[1,2′]bipyridinyl-5′-carboxylic acid amide]	< 100 nM
C=CC(=O)N[C@H]1CCN(c2ncc(C(N)=O)c(N)n2)C1 [Compound 142, 2-((S)-3-Acryloylamino-pyrrolidin-1-yl)-4-amino-pyrimidine-5-carboxylic acid amide]	100 to 1000 nM
C/C=C/C(=O)N1CCCC(Nc2cnc(Oc3ccc(Oc4ccccc4)cc3)c(C(N)=O)c2)C1 (centres unmarked) [Compound 215, 5-[1-((E)-But-2-enoyl)-piperidin-3-ylamino]-2-(4-phenoxy-phenoxy)-nicotinamide]	> 5000 nM

— patent US10329270B2, “Heteroaryl compounds as BTK inhibitors and uses thereof” (Merck Patent GmbH, priority 2013, dated 2019)
